Measurements reported in ChEMBL document CHEMBL5678807, “A selective jumonji H3K27 demethylase inhibitor modulates the proinflammatory macrophage response” (Nature, 2012).

Tests used:
Macrophage [1] = assay: Antiinflammatory activity in human primary macrophages assessed as effect on LPS-induced PDGFA gene expression at 30 uM measured after 2 hrs by RT-PCR array (reference value: 235 a.u.); type: functional
Macrophage [2] = assay: Antiinflammatory activity in human primary macrophages assessed as effect on LPS-induced IL1F9 gene expression at 30 uM measured after 2 hrs by RT-PCR array (reference value: 5170 a.u.); type: functional
[3] = Prodrug conversion in human primary macrophage lysates assessed as formation of GSK-J1 at 30 uM measured after 1 hr by RP LC-MS/MS analysis; type: ADME, subcellular
Macrophage [4] = assay: Antiinflammatory activity in human primary macrophages assessed as effect on LPS-induced GDF11 gene expression at 30 uM measured after 2 hrs by RT-PCR array (reference value: 115 a.u.); type: functional
[5] = target: T1, Lysine-specific demethylase 4A (Homo sapiens, UniProt O75164); assay: Inhibition of human JmjD2a using H3K27(me3) as substrate preincubated for 10 mins followed by substrate addition and measured after 7 mins in presence of alpha-KG by RapidFire Mass Spectrometry
[6] = target: Lysine-specific demethylase 6A (Homo sapiens, UniProt O15550); assay: Inhibition of human UTX using Biotin-KAPRKQLATKAARK(me3)SAPATGG as substrate by MALDI-TOF analysis
[7] = target: T1, Lysine-specific demethylase 4A; assay: Inhibition of human JmjD2a by Alphascreen assay
[8] = target: Lysine-specific demethylase 4C (Homo sapiens, UniProt Q9H3R0); assay: Inhibition of human JmjD2c using H3K27(me3) as substrate preincubated for 10 mins followed by substrate addition and measured after 7 mins in presence of alpha-KG by RapidFire Mass Spectrometry
[9] = target: Lysine-specific demethylase 5C (Homo sapiens, UniProt P41229); assay: Inhibition of human Jarid1c by MALDI-TOF analysis
[10] = target: Lysine-specific demethylase 4E (Homo sapiens, UniProt B2RXH2); assay: Inhibition of human JmjD2e using H3K27(me3) as substrate preincubated for 10 mins followed by substrate addition and measured after 7 mins in presence of alpha-KG by RapidFire Mass Spectrometry
[11] = Prodrug conversion in human primary macrophage lysates assessed as formation of GSK-J2 at 30 uM measured after 1 hr by RP LC-MS/MS analysis; type: ADME, subcellular

T1 sequence (O75164 whole entry): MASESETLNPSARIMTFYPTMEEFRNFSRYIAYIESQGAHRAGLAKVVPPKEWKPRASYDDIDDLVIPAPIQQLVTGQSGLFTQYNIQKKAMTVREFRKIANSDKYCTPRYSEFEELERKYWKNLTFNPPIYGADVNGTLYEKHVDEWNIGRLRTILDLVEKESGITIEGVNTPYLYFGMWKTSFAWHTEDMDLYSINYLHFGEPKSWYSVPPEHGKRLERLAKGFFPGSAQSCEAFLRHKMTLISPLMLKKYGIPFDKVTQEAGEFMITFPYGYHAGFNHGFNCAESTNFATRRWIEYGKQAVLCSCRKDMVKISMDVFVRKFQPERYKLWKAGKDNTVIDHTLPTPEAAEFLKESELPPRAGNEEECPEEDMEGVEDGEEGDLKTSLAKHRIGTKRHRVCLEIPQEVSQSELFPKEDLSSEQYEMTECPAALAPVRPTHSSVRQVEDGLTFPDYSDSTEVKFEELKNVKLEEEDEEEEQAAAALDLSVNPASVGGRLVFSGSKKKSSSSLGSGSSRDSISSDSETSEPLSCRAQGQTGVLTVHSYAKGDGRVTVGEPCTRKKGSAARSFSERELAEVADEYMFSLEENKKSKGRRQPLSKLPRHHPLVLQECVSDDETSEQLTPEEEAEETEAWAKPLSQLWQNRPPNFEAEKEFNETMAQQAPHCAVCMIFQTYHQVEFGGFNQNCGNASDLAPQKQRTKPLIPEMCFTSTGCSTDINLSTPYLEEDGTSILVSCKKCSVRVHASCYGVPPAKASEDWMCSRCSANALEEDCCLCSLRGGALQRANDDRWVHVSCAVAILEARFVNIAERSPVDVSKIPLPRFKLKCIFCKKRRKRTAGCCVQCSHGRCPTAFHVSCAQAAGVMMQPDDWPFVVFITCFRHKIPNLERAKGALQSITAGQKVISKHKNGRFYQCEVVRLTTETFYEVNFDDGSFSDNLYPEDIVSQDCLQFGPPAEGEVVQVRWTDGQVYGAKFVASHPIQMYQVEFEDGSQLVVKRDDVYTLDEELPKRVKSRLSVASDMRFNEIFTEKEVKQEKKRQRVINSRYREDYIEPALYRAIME
Lysine-specific demethylase 4C, sequence (Q9H3R0 whole entry): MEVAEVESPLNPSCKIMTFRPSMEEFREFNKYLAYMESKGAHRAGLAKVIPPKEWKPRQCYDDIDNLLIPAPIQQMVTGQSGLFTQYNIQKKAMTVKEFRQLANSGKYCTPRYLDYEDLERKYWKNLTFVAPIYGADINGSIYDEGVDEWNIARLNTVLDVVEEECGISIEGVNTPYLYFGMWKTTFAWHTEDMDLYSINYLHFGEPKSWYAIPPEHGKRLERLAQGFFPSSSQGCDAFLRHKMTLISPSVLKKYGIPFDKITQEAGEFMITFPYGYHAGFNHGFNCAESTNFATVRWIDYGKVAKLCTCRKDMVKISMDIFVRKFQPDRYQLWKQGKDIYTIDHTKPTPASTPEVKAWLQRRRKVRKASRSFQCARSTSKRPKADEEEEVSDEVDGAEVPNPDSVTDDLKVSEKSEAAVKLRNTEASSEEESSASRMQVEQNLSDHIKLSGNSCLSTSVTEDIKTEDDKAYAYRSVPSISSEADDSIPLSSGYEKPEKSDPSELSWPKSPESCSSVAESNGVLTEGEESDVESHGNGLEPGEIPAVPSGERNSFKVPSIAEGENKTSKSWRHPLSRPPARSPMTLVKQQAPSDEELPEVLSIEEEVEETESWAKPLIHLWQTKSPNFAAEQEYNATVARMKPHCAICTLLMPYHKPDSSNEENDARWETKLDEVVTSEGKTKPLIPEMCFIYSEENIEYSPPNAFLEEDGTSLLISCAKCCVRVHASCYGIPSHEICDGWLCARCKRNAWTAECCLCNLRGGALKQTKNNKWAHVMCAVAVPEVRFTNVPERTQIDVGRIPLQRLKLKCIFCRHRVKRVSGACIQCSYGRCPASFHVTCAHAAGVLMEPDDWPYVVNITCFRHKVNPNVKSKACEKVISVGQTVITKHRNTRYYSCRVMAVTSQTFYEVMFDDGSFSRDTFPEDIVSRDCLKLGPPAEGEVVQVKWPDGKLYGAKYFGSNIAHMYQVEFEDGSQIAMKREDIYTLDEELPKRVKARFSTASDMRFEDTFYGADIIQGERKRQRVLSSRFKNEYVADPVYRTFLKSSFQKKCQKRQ
Lysine-specific demethylase 6A, sequence (O15550 whole entry): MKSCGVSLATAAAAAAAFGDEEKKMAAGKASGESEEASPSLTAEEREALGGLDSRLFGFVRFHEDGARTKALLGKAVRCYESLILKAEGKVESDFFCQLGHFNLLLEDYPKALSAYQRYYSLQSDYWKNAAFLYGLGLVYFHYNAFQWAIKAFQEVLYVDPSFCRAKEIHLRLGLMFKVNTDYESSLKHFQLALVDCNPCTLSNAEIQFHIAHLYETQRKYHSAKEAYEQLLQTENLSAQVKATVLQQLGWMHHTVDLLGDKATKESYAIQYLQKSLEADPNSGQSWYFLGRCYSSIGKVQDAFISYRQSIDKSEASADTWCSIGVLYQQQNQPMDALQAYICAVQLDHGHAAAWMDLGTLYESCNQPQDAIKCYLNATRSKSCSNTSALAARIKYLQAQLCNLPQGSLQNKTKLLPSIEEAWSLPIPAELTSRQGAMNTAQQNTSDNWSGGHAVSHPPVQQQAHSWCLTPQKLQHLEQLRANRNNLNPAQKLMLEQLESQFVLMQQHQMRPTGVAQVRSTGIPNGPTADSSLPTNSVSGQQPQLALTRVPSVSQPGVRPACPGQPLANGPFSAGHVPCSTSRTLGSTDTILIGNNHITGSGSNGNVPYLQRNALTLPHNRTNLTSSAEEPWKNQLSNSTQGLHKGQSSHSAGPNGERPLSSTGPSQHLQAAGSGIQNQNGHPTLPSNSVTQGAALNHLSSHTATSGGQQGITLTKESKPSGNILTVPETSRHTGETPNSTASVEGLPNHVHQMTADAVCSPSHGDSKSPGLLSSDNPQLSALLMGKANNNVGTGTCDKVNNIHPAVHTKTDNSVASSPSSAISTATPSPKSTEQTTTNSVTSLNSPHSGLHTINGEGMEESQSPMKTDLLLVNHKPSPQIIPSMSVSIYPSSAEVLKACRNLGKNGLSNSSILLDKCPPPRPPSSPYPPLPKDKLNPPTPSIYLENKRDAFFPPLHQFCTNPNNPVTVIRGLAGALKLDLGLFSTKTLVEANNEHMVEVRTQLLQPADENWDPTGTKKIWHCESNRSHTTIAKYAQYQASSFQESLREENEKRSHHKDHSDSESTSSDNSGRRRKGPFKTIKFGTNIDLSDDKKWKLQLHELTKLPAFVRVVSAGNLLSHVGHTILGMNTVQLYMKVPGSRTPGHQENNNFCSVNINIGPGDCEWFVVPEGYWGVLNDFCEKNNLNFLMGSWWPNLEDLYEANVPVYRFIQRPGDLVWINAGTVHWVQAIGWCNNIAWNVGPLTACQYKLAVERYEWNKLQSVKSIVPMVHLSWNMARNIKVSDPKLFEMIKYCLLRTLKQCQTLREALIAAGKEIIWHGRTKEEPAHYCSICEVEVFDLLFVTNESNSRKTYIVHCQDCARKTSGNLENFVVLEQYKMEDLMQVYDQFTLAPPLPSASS
Lysine-specific demethylase 5C, sequence (P41229 whole entry): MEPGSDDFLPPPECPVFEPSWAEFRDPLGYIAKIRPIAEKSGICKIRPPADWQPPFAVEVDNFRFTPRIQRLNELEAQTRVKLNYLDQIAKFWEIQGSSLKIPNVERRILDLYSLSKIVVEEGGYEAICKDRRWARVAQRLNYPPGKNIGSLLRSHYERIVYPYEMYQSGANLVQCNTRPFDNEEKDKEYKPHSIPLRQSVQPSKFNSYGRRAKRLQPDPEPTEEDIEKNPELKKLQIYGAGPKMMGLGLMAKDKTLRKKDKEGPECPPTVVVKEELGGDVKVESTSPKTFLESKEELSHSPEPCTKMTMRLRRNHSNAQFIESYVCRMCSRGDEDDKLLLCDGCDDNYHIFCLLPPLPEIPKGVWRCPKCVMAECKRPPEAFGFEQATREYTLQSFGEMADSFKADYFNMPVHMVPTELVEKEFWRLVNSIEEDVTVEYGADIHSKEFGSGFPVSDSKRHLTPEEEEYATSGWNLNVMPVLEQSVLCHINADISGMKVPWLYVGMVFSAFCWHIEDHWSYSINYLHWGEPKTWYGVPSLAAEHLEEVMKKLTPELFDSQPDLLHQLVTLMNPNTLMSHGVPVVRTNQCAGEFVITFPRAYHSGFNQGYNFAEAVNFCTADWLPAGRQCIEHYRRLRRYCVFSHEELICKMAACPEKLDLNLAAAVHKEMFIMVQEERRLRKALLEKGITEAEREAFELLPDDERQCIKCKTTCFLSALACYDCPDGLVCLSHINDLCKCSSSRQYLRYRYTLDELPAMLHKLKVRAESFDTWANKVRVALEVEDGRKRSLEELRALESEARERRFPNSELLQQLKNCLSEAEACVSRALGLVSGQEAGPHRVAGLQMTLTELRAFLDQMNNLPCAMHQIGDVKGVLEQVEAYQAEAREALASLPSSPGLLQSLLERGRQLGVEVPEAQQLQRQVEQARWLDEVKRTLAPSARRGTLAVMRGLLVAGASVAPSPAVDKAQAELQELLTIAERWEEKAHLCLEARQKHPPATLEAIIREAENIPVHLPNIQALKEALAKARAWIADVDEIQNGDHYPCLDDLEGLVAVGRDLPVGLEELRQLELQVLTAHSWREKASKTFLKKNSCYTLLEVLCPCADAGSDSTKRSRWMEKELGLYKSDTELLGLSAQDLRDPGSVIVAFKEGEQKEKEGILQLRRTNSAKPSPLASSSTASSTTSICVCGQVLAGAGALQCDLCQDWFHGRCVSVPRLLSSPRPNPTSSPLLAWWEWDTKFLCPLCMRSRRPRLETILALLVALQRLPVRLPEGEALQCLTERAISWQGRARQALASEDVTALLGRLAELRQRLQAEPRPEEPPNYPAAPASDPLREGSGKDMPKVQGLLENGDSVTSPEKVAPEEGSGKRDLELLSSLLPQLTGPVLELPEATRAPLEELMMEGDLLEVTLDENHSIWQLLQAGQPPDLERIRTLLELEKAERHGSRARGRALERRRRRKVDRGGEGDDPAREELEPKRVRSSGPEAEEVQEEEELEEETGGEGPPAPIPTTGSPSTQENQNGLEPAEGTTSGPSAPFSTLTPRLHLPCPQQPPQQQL

**Q.** Which Activity (Macrophage [1]) does the source give for `CCOC(=O)CCNc1cc(N2CCc3ccccc3CC2)nc(-c2ccccn2)n1` here?
**A.** 392 a.u.

**Q.** And the Activity (Macrophage [2])?
**A.** 476 a.u.

**Q.** And the Drug metabolism [3]?
**A.** 11.8 µM

**Q.** And the Activity (Macrophage [4])?
**A.** 31 a.u.

**Q.** What does the source list for `O=C(O)CCNc1cc(N2CCc3ccccc3CC2)nc(-c2ccccn2)n1`?
**A.** IC50 [5]: > 100 µM; IC50 [6]: 56 µM; IC50 [7]: 44.3 µM; IC50 [8]: > 100 µM; IC50 [9]: > 100 µM

**Q.** With `O=C(O)CCNc1cc(N2CCc3ccccc3CC2)nc(-c2cccnc2)n1` as the molecule, how does the IC50 [10] read?
**A.** > 100 µM

**Q.** For `CCOC(=O)CCNc1cc(N2CCc3ccccc3CC2)nc(-c2cccnc2)n1`, which Activity (Macrophage [1]) is on record?
**A.** 239 a.u.

**Q.** What about the Activity (Macrophage [2]) of the same molecule?
**A.** 2413 a.u.

**Q.** What about the Drug metabolism [11] of the same molecule?
**A.** 17.4 µM

**Q.** What about the Activity (Macrophage [4]) of the same molecule?
**A.** 110 a.u.
